For one test, the system named is IL-23p19. The test can be described thus: LPS induced IL23p19 in THP-1 cells (with IFNγ primed) assay. Type of test: cell-based, Human. An excerpt: LPS Induced IL23p19 in THP-1 Cells (with IFNγ Primed) Assay
THP-1 Cells (ATCC, Cat#TIB-202), Dimethyl Sulfoxide (DMSO) (Sigma-Aldrich, Cat#D2650), RPMI 1640 (Cellgro, Cat#10-040-CM), Fetal Bovine Serum (Sigma, Cat#F4135), Albumin From Bovine Serum (BSA) (Sigma-Aldrich, Cat#A7906), LPS (Serotype K-235, Sigma, Product Number L 2143), IFNγ (Peprotech, Cat#300-02) Capture antibody: Human IL-23p19 ELISA (e-Bioscience, Cat. #14-7238-85), Detection antibody: Primary Mouse Biotinylated anti-human IL-12(p40/p70) (e-Bioscience, Cat. #13-7129-85), Secondary HRP-conjugated Streptavidin (R&D Systems, Cat#DY998), 1×PBST Washing Buffer (PBS-Tween tablet) (VWR International, Cat#80058-558), ELISA Blocking Buffer (PBS with 1% BSA), ELISA Dilution Buffer (PBS with 1% BSA), 384 Well Flat-Bottom, MaxiSorp Black Immuno Plates (Thermo Scientific, Cat#12-565-346), 384 Well Flat-Bottom, White Tissue Culture Plates (Thermo Scientific, Cat#12-565-343), Super Signal ELISA Pico Chemiluminescent Substrate (Thermo Scientific, Cat#37070), Cell Titer Glo reagent (Promega, Cat#G7573), Positive control, IKK2VI inhibitor (Calbiochem, Cat#401483), AquaMax 4000 plate washer (Molecular Devices), Luminometer, Wallac Victor2 1420 Multilabel Counter.
On day 1, 50K/well THP-1 cells were seeded and primed with IFNγ (50 ng/mL) in 384-well plates for about 18 hours in RPMI media with 10% FBS. On day 2, the compound was serially diluted in DMSO from 5 mM in 3-fold dilutions, and then diluted 1:125 in RPMI media with 10% FBS. 50 μL/well 2× compound was added to 50 μL/well THP-1 cells (with IFNγ primed) in duplicate in 384 well tissue culture plates. The cells were pre-incubated with compound for 1 hour at 37° C., 5% CO2 before addition of 10 μL/well 11×LPS to give a final concentration of 1 ug/mL LPS. Day 3, after stimulation for 18 hours at 37° C., 5% CO2, the assay plate was centrifuged and 70 μL/well supernatant was harvested. IL-23p19 protein in 70 μL/well of supernatant was measured by sandwich ELISA, and 25 μl/well Cell Titer Glo reagent was added to the remaining cells to measure compound toxicity.
Maxisorp immuno ELISA plates were pre-coated with 25 μL/well of anti-IL-23p19 capture antibody (2.5 ug/mL) in PBS overnight at room temperature. After washing with 1× PBST, the plates were blocked using 100 μL/well of 1% BSA in PBS for 2 hours at room temperature. The plates were washed three times with 1×PBST and 70 μL/well supernatant were added. The plates were incubated at room temperature for 2 hours with shaking and washed three times with 1×PBST. 25 μL/well of biotin labeled anti-IL-12(p40/p70) detection antibody (100 ng/mL) in PBS with 1% BSA was added and the plates were incubated at room temperature for 2 hours with shaking. After washing three times with 1×PBST, 25 μL/well of streptavidin-HRP (1:200) in PBS with 1% BSA was added and the plates were incubated at room temperature for 20 minutes with shaking. The plates were washed three times with 1× PBST and 25 μL/well of Super Signal ELISA Pico Chemiluminescent Substrate were added. The plates were read with a luminometer, and the chemiluminescence values were entered into Athena (Rigel) for curve fitting, EC50 calculation, and database storage.

A further test relates to IL-23 (p19/p40). Briefly: IL23-p19 ELISA, Dendritic, LPS (compound screening using DC cells). It counts as cell-based, Human. On the procedure: Compound Screening Using DC Cells
Human PBMC cells (400 million) obtained from the vendor were transferred into a T-175 flask containing 15 ml RPMI media (10% FBS) and incubate for 2 hours at 37° C. After 2 hours, the media including floating cells was aspirated out carefully and 12 ml of fresh RPMI media (10% FBS) containing GMCSF (100 ng/ml) and IL4 (20 ng/ml) was added, and the flask was kept in a 37° C. incubator for 7 days.
After 3 days, fresh GMCSF (100 ng/ml) and IL4 (20 ng/ml) were added to the flask and the incubation continued. After 7 days, the fully differentiated cells were harvested by spinning down (1200 rpm/5 min) and aspirating the media. The cells were suspended in fresh RPMI media (10% FBS) containing 50 ng/ml IFNγ (1000 U/ml) and then plated (50K/well in 100 μl) onto a white clear bottom 96 well plate and left in a 37° C. incubator for 24 hours.
After 24 hours incubation, 100 μl of RPMI media was added containing 2× concentrated test compound per well to the above cell-culture media (final concentration becomes 1×) and the plates were pre-incubated for 1 hour at 37° C. before stimulating with LPS.
After 1 hour compound pre-incubation, 10 piper well of 20× concentrated LPS solution in RPMI media was added to give a final concentration of 1 μg/ml. The mixture was shaken and incubated the plates at 37° C. for an additional 18 hours.
155 μl of the supernatant was harvested from each well carefully (without the tip touching the bottom of the well) and to the remaining 50 μl/well of the cell culture plate was added 50 μl of Cell Titer Glo reagent. The mixture was incubated for 1-2 minutes on a shaker and the plate was read for luminescence intensity to determine the compound cytotoxicity. The cell culture supernatant collected above was used to carry out IL23 ELISA (65 μl -Supernatant) and IL10 ELISA (90 μl—Supernatant) as described below.
Human IL-23 (p19/p40) ELISA Protocol (e-Biosciences)
To 10.5 ml PBS add 50 μl of anti-IL23 (p19) was added capture antibody (2.5 μg/ml). The mixture was mixed well and 100 μl of the coating solution was added to each well of the 96 well white plates from Pierce. The wells were covered and incubated overnight at 4° C.
The anti-IL23 (p19)-antibody-coated plates were washed 2× using TBST (use plate washer) and blocked using 200 μl of 0.5% Casein for 1.5-2 hours at room temperature with shaking.
The plates were washed 2× using TBST and the supernatant was transferred (65 μl/well) to the above pre-blocked/IL23(p19)-antibody-coated 96 well plate, and incubated at room temperature for 1.5 hours with shaking.
The plates were washed 4× using TBST (plate washer) and 100 μl/well detection antibody solution prepared from 2 μl of biotin labeled anti-IL-12 (p40/p70) antibody in 11 ml 1% BSA/PBS solution (1-5000 dilution) was added. The plates were incubated for 1 hour with shaking at Room temperature.
Again, the plates were washed 4× with TBST and 100 μl of HRP labeled Streptavidin (R&D Systems) solution (10 μl/10 ml 1% BSA solution) was added, and the plates were incubated at room temperature for another 45 minutes with shaking.
After 45 minutes, the plates were washed with TBST 4× and 100 ul/well Super Signal ELISA Pico Chemiluminescent Substrate from Pierce (3.5 ml A+3.5 ml B+3.5 ml MQ water) was added. The plates were shaken for 1-2 minutes then read on a plate reader.
On the technique in general: An ELISA detects its analyte on a solid surface through an enzyme-linked reagent.

The mark [1] stands for this setting: THP-1 cells, IFNγ primed, LPS 1 ug/mL, 18 hours, 10 pt, read-out: IL23-p19 ELISA, THP1-IFNy, LPS, 10 pt EC50.
[2] abbreviates: Homo sapiens, THP-1, 18 h, THP-1 cells, IFNγ primed, LPS 1 ug/mL, 18 hours, 10 pt, read-out: IL23-p19 ELISA, THP1-IFNy, LPS, 10 pt EC50.
Where [3] appears, read: Homo sapiens, 18 h, PBMC-derived DC cells, IFNγ primed, LPS 1 μg/ml, 18 hours, 10 pt, read-out: IL23-p19 ELISA, Dendritic, LPS, 10 pt, EC50.

The results in this text go back to patent US10208074B2, “Pyrazole compounds and method for making and using the compounds” (Rigel Pharmaceuticals, Inc., priority 2015, dated 2019).

Where a name gives a salt, the structure may show the parent alone. Read-outs that look alike come from different tables or passages of the source.

As usually defined, the EC50 is the concentration that produces a half-maximal response.

For `COCCn1cc(NC(=O)c2ccc(-c3c[nH]nc3C)o2)c(-c2ccccn2)n1` [Compound I-9, N-(1-(2-methoxyethyl)-3-(pyridin-2-yl)-1H-pyrazol-4-yl)-5-(3-methyl-1H-pyrazol-4-yl)furan-2-carboxamide], the EC50 was 0.281 µM with IL-23p19 (setting [1]) and 0.309 µM with IL-23 (p19/p40) (PBMC-derived DC cells, IFNγ primed, LPS 1 μg/ml, 18 hours, 10 pt, read-out: IL23-p19 ELISA, Dendritic, LPS, 10 pt, EC50).
Turning to `COCCn1cc(NC(=O)c2ccc(-c3cnn(COP(=O)(OC(C)(C)C)OC(C)(C)C)c3)o2)c(-c2ccccn2)n1` [Compound I-10, di-tert-butyl ((4-(5-((1-(2-methoxyethyl)-3-(pyridin-2-yl)-1H-pyrazol-4-yl)carbamoyl)furan-2-yl)-1H-pyrazol-1-yl)methyl) phosphate], the 50% effective concentration (EC50) in the test on IL-23p19 (setting [2]) was determined as 21.9 µM; in the test with IL-23 (p19/p40) (setting [3]), 3.27 µM.
`COCCn1cc(NC(=O)c2ccc(-c3cnn(COP(=O)(O)OC(C)(C)C)c3)o2)c(-c2ccccn2)n1` [Compound I-11, tert-butyl ((4-(5-((1-(2-methoxyethyl)-3-(pyridin-2-yl)-1H-pyrazol-4-yl)carbamoyl)furan-2-yl)-1H-pyrazol-1-yl)methyl) hydrogen phosphate]: the EC50 in the test on IL-23p19 (setting [2]) stood at 4.84 µM; in the test on IL-23 (p19/p40) (setting [3]), 5.19 µM.
For `COCCn1cc(NC(=O)c2ccc(-c3cnn(COP(=O)(O)O)c3)o2)c(-c2ccccn2)n1` [Compound I-12, (4-(5-((1-(2-methoxyethyl)-3-(pyridin-2-yl)-1H-pyrazol-4-yl)carbamoyl)furan-2-yl)-1H-pyrazol-1-yl)methyl dihydrogen phosphate], the EC50 in the test with IL-23p19 (setting [2]) turned out to be 0.593 µM; with IL-23 (p19/p40) (setting [3]), 1.05 µM.
`COCCn1cc(NC(=O)c2ccc(-c3c[nH]nc3C(F)(F)F)o2)c(-c2ccccn2)n1` [Compound I-13, N-(1-(2-methoxyethyl)-3-(pyridin-2-yl)-1H-pyrazol-4-yl)-5-(3-(trifluoromethyl)-1H-pyrazol-4-yl)furan-2-carboxamide]: the EC50 with IL-23p19 (setting [2]) came to 136 µM; in the test with IL-23 (p19/p40) (setting [3]), 11 µM.
As for `COCCn1cc(NC(=O)c2ccc(-c3cnn(COP(=O)(O)O)c3)o2)c(-c2ccccn2)n1` [Compound I-14, sodium (4-(5-((1-(2-methoxyethyl)-3-(pyridin-2-yl)-1H-pyrazol-4-yl)carbamoyl)furan-2-yl)-1H-pyrazol-1-yl)methyl phosphate], the EC50 with IL-23p19 (Homo sapiens, THP-1, 18 h, read-out: IL23-p19 ELISA, THP1-IFNy, LPS, 10 pt EC50 (μM)) was 1.25 µM; in the test with IL-23 (p19/p40) (Homo sapiens, 18 h, read-out: IL23-p19 ELISA, Dendritic, LPS, 10 pt, EC50 (μM)) it was 0.571 µM.
As for `O=C(Nc1cn(CCO)nc1-c1ncccn1)c1ccc(-c2cn[nH]c2)o1` [Compound I-15, N-(1-(2-hydroxyethyl)-3-(pyrimidin-2-yl)-1H-pyrazol-4-yl)-5-(1H-pyrazol-4-yl)furan-2-carboxamide], the results for the EC50 with IL-23p19 (setting [2]) and with IL-23 (p19/p40) (setting [3]) were 2.23 µM and 2.2 µM, respectively.
In the case of `COCCOCCn1cc(NC(=O)c2ccc(-c3cn[nH]c3)o2)c(-c2ccccn2)n1` [Compound I-16, N-(1-(2-(2-methoxyethoxy)ethyl)-3-(pyridin-2-yl)-1H-pyrazol-4-yl)-5-(1H-pyrazol-4-yl)furan-2-carboxamide], the EC50 with IL-23p19 (setting [1]) was determined as 0.125 µM; with IL-23 (p19/p40) (setting [3]) it was 0.403 µM.
Take `COCCOCCn1cc(NC(=O)c2ccc(-c3cn[nH]c3)o2)c(-c2ccccn2)n1` [Compound I-17, N-(1-(2-(2-methoxyethoxy)ethyl)-3-(pyridin-2-yl)-1H-pyrazol-4-yl)-5-(1H-pyrazol-4-yl)furan-2-carboxamide hydrochloride salt]: the EC50 in the test with IL-23p19 (THP-1 cells, IFNγ primed, LPS 1 ug/mL, 18 hours, 10 pt, hydrochloride salt, read-out: IL23-p19 ELISA, THP1-IFNy, LPS, 10 pt EC50) amounted to 0.285 µM; with IL-23 (p19/p40) (PBMC-derived DC cells, IFNγ primed, LPS 1 μg/ml, 18 hours, 10 pt, hydrochloride salt, read-out: IL23-p19 ELISA, Dendritic, LPS, 10 pt, EC50), 0.424 µM.
Take `COCCOCCn1cc(NC(=O)c2ccc(-c3c[nH]nc3C)o2)c(-c2ccccn2)n1` [Compound I-18, N-(1-(2-(2-methoxyethoxy)ethyl)-3-(pyridin-2-yl)-1H-pyrazol-4-yl)-5-(3-methyl-1H-pyrazol-4-yl)furan-2-carboxamide]: the EC50 in the test with IL-23p19 (setting [2]) is 0.514 µM; with IL-23 (p19/p40) (setting [3]) it was 1.2 µM.
On the same counts, the results for `COCCn1cc(NC(=O)c2ccc(-c3cnn(C(=O)OC(C)OC(=O)C(C)C)c3)o2)c(-c2ccccn2)n1` (stereo not shown) [Compound I-19, 1-(isobutyryloxy)ethyl 4-(5-((1-(2-methoxyethyl)-3-(pyridin-2-yl)-1H-pyrazol-4-yl)carbamoyl)furan-2-yl)-1H-pyrazole-1-carboxylate] are 0.3 µM and 0.337 µM.
